Active and inactive are the calls of the source. How the calls were made is not given here.
Tested on: rodent lifetime carcinogenesis bioassay, tumor incidence TD50
Test: chronic cancer bioassays in animals – CPDB, compiled studies (AID 1745844)
[1] = mouse, strain B6C3F1, females, in feed, site: any site (literature study), lesion: several types, types named in the paper, dosed 103 weeks, study length 103 weeks

Cc1cccc(C)c1
TD50 (mouse, strain B6C3F1, females, by gavage, site: liver, lesion: hepatocellular adenoma + hepatocellular carcinoma + neoplastic nodule, dosed 103 weeks, study length 104 weeks): 7040 mg/kg/day | TD50 (mouse, strain B6C3F1, females, by gavage, site: lung, lesion: alveolar/bronchiolar adenoma + alveolar/bronchiolar carcinoma, dosed 103 weeks, study length 104 weeks): 5130 mg/kg/day | TD50 (mouse, strain B6C3F1, females, by gavage, site: thyroid gland, lesion: follicular-cell adenoma, dosed 103 weeks, study length 104 weeks): 4790 mg/kg/day (inactive) | carcinogen call (mouse, strain B6C3F1, males, by gavage, site: any site (literature study), lesion: several types, types named in the paper, dosed 103 weeks, study length 104 weeks): negative (inactive) | TD50 (mouse, strain B6C3F1, males, by gavage, site: lung, lesion: alveolar/bronchiolar adenoma + alveolar/bronchiolar carcinoma, dosed 103 weeks, study length 104 weeks): 7600 mg/kg/day | TD50 (rat, strain Fischer 344, females, by gavage, site: any site (literature study), lesion: several types, types named in the paper, dosed 103 weeks, study length 104 weeks): 1930 mg/kg/day | TD50 (rat, strain Fischer 344, females, by gavage, site: liver, lesion: hepatocellular adenoma + hepatocellular carcinoma + neoplastic nodule, dosed 103 weeks, study length 104 weeks): 51300 mg/kg/day | TD50 (rat, strain Fischer 344, females, by gavage, site: mammary gland, lesion: adenoma, NOS, dosed 103 weeks, study length 104 weeks): 4110 mg/kg/day (inactive) | TD50 (rat, strain Fischer 344, males, by gavage, site: any site (literature study), lesion: several types, types named in the paper, dosed 103 weeks, study length 104 weeks): 700 mg/kg/day (inactive) | TD50 (rat, strain Sprague-Dawley, females, by gavage, site: all sites, lesion: lymphoma and leukemia, combined, dosed 104 weeks, study length 123 weeks): 4170 mg/kg/day | TD50 (rat, strain Sprague-Dawley, females, by gavage, site: all sites, lesion: lymphoma and leukemia, combined, dosed 104 weeks, study length 141 weeks): 5170 mg/kg/day | TD50 (rat, strain Sprague-Dawley, females, by gavage, site: any site (literature study), lesion: malignant tumor, dosed 104 weeks, study length 123 weeks): 1870 mg/kg/day | TD50 (rat, strain Sprague-Dawley, females, by gavage, site: any site (literature study), lesion: malignant tumor, dosed 104 weeks, study length 141 weeks): 524 mg/kg/day | TD50 (rat, strain Sprague-Dawley, females, by gavage, site: any site (literature study), lesion: several types, types named in the paper, dosed 104 weeks, study length 141 weeks): 304 mg/kg/day | TD50 (rat, strain Sprague-Dawley, females, by gavage, site: ear duct, lesion: carcinoma, dosed 104 weeks, study length 123 weeks): 18000 mg/kg/day | TD50 (rat, strain Sprague-Dawley, females, by gavage, site: head, lesion: carcinoma, dosed 104 weeks, study length 123 weeks): 5620 mg/kg/day | TD50 (rat, strain Sprague-Dawley, females, by gavage, site: head, lesion: carcinoma, dosed 104 weeks, study length 141 weeks): 2830 mg/kg/day | TD50 (rat, strain Sprague-Dawley, females, by gavage, site: mammary tissue, wider than the gland, lesion: carcinoma, dosed 104 weeks, study length 141 weeks): 1750 mg/kg/day | TD50 (rat, strain Sprague-Dawley, females, by gavage, site: oral cavity, lesion: carcinoma, dosed 104 weeks, study length 123 weeks): 5860 mg/kg/day | TD50 (rat, strain Sprague-Dawley, males, by gavage, site: Zymbal's gland, lesion: carcinoma, dosed 104 weeks, study length 141 weeks): 58400 mg/kg/day | TD50 (rat, strain Sprague-Dawley, males, by gavage, site: all sites, lesion: lymphoma and leukemia, combined, dosed 104 weeks, study length 123 weeks): 8150 mg/kg/day | TD50 (rat, strain Sprague-Dawley, males, by gavage, site: all sites, lesion: lymphoma and leukemia, combined, dosed 104 weeks, study length 141 weeks): 4170 mg/kg/day | TD50 (rat, strain Sprague-Dawley, males, by gavage, site: any site (literature study), lesion: malignant tumor, dosed 104 weeks, study length 123 weeks): 1820 mg/kg/day | TD50 (rat, strain Sprague-Dawley, males, by gavage, site: any site (literature study), lesion: malignant tumor, dosed 104 weeks, study length 141 weeks): 1670 mg/kg/day | TD50 (rat, strain Sprague-Dawley, males, by gavage, site: any site (literature study), lesion: several types, types named in the paper, dosed 104 weeks, study length 123 weeks): 4070 mg/kg/day | TD50 (rat, strain Sprague-Dawley, males, by gavage, site: ear duct, lesion: carcinoma, dosed 104 weeks, study length 123 weeks): 18300 mg/kg/day | TD50 (rat, strain Sprague-Dawley, males, by gavage, site: head, lesion: carcinoma, dosed 104 weeks, study length 123 weeks): 3440 mg/kg/day | TD50 (rat, strain Sprague-Dawley, males, by gavage, site: head, lesion: carcinoma, dosed 104 weeks, study length 141 weeks): 5170 mg/kg/day | TD50 (rat, strain Sprague-Dawley, males, by gavage, site: oral cavity, lesion: carcinoma, dosed 104 weeks, study length 123 weeks): 4440 mg/kg/day | TD50 (rat, strain Sprague-Dawley, males, by gavage, site: oral cavity, lesion: carcinoma, dosed 104 weeks, study length 141 weeks): 5820 mg/kg/day

NC(=O)c1ccccc1C(N)=O
carcinogen call [1]: negative (inactive) | TD50 (mouse, strain B6C3F1, males, in feed, site: any site (literature study), lesion: several types, types named in the paper, dosed 105 weeks, study length 105 weeks): 1.1e+06 mg/kg/day (inactive) | TD50 (mouse, strain B6C3F1, males, in feed, site: lung, lesion: alveolar/bronchiolar adenoma + alveolar/bronchiolar carcinoma, dosed 105 weeks, study length 105 weeks): 35800 mg/kg/day | TD50 (rat, strain Fischer 344, females, in feed, site: any site (literature study), lesion: several types, types named in the paper, dosed 106 weeks, study length 106 weeks): 722 mg/kg/day (inactive) | TD50 (rat, strain Fischer 344, females, in feed, site: liver, lesion: hepatocellular adenoma + hepatocellular carcinoma + neoplastic nodule, dosed 106 weeks, study length 106 weeks): 5390 mg/kg/day | carcinogen call (rat, strain Fischer 344, males, in feed, site: any site (literature study), lesion: several types, types named in the paper, dosed 106 weeks, study length 106 weeks): negative (inactive) | TD50 (rat, strain Fischer 344, males, in feed, site: liver, lesion: hepatocellular adenoma + hepatocellular carcinoma + neoplastic nodule, dosed 106 weeks, study length 106 weeks): 16600 mg/kg/day

NCC(=O)O
TD50 (rat, strain F344/DuCrj, females, in drinking water, site: any site (literature study), lesion: several types, types named in the paper, dosed 108 weeks, study length 108 weeks): 7550 mg/kg/day | TD50 (rat, strain F344/DuCrj, females, in drinking water, site: kidney/pelvis, lesion: transitional-cell papilloma, dosed 108 weeks, study length 108 weeks): 25700 mg/kg/day | TD50 (rat, strain F344/DuCrj, females, in drinking water, site: liver, lesion: neoplastic nodule, dosed 108 weeks, study length 108 weeks): 157000 mg/kg/day | TD50 (rat, strain F344/DuCrj, females, in drinking water, site: uterus, lesion: endometrial stromal polyp, dosed 108 weeks, study length 108 weeks): 3100 mg/kg/day

ClCc1ccccc1
TD50 (mouse, strain B6C3F1, females, by gavage, site: forestomach, lesion: carcinoma, dosed 104 weeks, study length 107 weeks): 445 mg/kg/day | TD50 (mouse, strain B6C3F1, females, by gavage, site: forestomach, lesion: several types, types named in the paper, dosed 104 weeks, study length 107 weeks): 81 mg/kg/day | TD50 (mouse, strain B6C3F1, females, by gavage, site: lung, lesion: several types, types named in the paper, dosed 104 weeks, study length 107 weeks): 337 mg/kg/day | TD50 (mouse, strain B6C3F1, males, by gavage, site: all sites, lesion: all vascular tumors, dosed 104 weeks, study length 107 weeks): 454 mg/kg/day | TD50 (mouse, strain B6C3F1, males, by gavage, site: forestomach, lesion: carcinoma, dosed 104 weeks, study length 107 weeks): 221 mg/kg/day | TD50 (mouse, strain B6C3F1, males, by gavage, site: forestomach, lesion: several types, types named in the paper, dosed 104 weeks, study length 107 weeks): 49.6 mg/kg/day | TD50 (mouse, strain B6C3F1, males, by gavage, site: liver, lesion: several types, types named in the paper, dosed 104 weeks, study length 107 weeks): 225 mg/kg/day | TD50 (rat, strain Fischer 344, females, by gavage, site: liver, lesion: neoplastic nodule, dosed 104 weeks, study length 107 weeks): 330 mg/kg/day | TD50 (rat, strain Fischer 344, females, by gavage, site: thyroid gland, lesion: several types, types named in the paper, dosed 104 weeks, study length 107 weeks): 40.6 mg/kg/day

Nc1ccc2cc3ccc(N)cc3nc2c1
TD50 [1]: 86.2 mg/kg/day | TD50 (mouse, strain B6C3F1, females, in feed, site: liver, lesion: hepatocellular adenoma + hepatocellular carcinoma + neoplastic nodule, dosed 103 weeks, study length 103 weeks): 26.4 mg/kg/day | TD50 (mouse, strain B6C3F1, females, in feed, site: liver, lesion: hepatocellular adenoma + hepatocellular carcinoma, dosed 103 weeks, study length 103 weeks): 26.4 mg/kg/day | TD50 (mouse, strain B6C3F1, females, in feed, site: lung, lesion: alveolar/bronchiolar adenoma + alveolar/bronchiolar carcinoma, dosed 103 weeks, study length 103 weeks): 487 mg/kg/day | TD50 (mouse, strain B6C3F1, males, in feed, site: liver, lesion: hepatocellular adenoma + hepatocellular carcinoma + neoplastic nodule, dosed 103 weeks, study length 103 weeks): 248 mg/kg/day | TD50 (rat, strain Fischer 344, males, in feed, site: large intestine + small intestine, lesion: sarcoma, NOS + adenocarcinoma, NOS + leiomyosarcoma, dosed 109 weeks, study length 109 weeks): 213 mg/kg/day | TD50 (rat, strain Fischer 344, males, in feed, site: liver, lesion: hepatocellular adenoma + hepatocellular carcinoma + neoplastic nodule, dosed 109 weeks, study length 109 weeks): 254 mg/kg/day | TD50 (rat, strain Fischer 344, males, in feed, site: liver, lesion: hepatocellular carcinoma + neoplastic nodule, dosed 109 weeks, study length 109 weeks): 254 mg/kg/day

CC1=C(C)C(=O)C(C(CCCCCC(=O)O)c2ccccc2)=C(C)C1=O (stereo not given)
carcinogen call (rat, strain Fischer 344/Jcl, females, in feed, site: liver, lesion: one or several types, types not named, dosed 52 weeks, study length 52 weeks): negative (inactive) | carcinogen call (rat, strain Fischer 344/Jcl, males, in feed, site: liver, lesion: one or several types, types not named, dosed 52 weeks, study length 52 weeks): negative (inactive)

NC(=O)NN=Cc1ccc([N+](=O)[O-])o1
TD50 (mouse, strain B6C3F1, females, in feed, site: any site (literature study), lesion: several types, types named in the paper, dosed 103 weeks, study length 104 weeks): 66.2 mg/kg/day | TD50 (mouse, strain B6C3F1, females, in feed, site: lung, lesion: alveolar/bronchiolar adenoma + alveolar/bronchiolar carcinoma, dosed 103 weeks, study length 104 weeks): 241 mg/kg/day | TD50 (mouse, strain B6C3F1, females, in feed, site: ovary, lesion: granulosa-cell tumor + mixed tumor, benign, dosed 103 weeks, study length 104 weeks): 22.4 mg/kg/day | TD50 (mouse, strain B6C3F1, females, in feed, site: ovary, lesion: granulosa-cell tumor, dosed 103 weeks, study length 104 weeks): 124 mg/kg/day | TD50 (mouse, strain B6C3F1, females, in feed, site: ovary, lesion: mixed tumor, benign + tubular adenoma, dosed 103 weeks, study length 104 weeks): 29.8 mg/kg/day | TD50 (mouse, strain B6C3F1, females, in feed, site: ovary, lesion: mixed tumor, benign, dosed 103 weeks, study length 104 weeks): 30.8 mg/kg/day | TD50 (mouse, strain B6C3F1, males, in feed, site: any site (literature study), lesion: several types, types named in the paper, dosed 103 weeks, study length 104 weeks): 89.3 mg/kg/day | TD50 (mouse, strain B6C3F1, males, in feed, site: liver, lesion: hepatocellular adenoma + hepatocellular carcinoma + neoplastic nodule, dosed 103 weeks, study length 104 weeks): 152 mg/kg/day | TD50 (mouse, strain B6C3F1, males, in feed, site: lung, lesion: alveolar/bronchiolar adenoma + alveolar/bronchiolar carcinoma, dosed 103 weeks, study length 104 weeks): 1380 mg/kg/day | TD50 (mouse, strain B6C3F1, males, in feed, site: subcutaneous tissue, lesion: fibrosarcoma + fibroma + neurofibrosarcoma + sarcoma, NOS, dosed 103 weeks, study length 104 weeks): 154 mg/kg/day (inactive) | TD50 (rat, strain Fischer 344, females, in feed, site: liver, lesion: hepatocellular adenoma + hepatocellular carcinoma + neoplastic nodule, dosed 103 weeks, study length 104 weeks): 253 mg/kg/day | TD50 (rat, strain Fischer 344, females, in feed, site: mammary gland, lesion: fibroadenoma, dosed 103 weeks, study length 104 weeks): 15.7 mg/kg/day | TD50 (rat, strain Fischer 344, males, in feed, site: any site (literature study), lesion: several types, types named in the paper, dosed 103 weeks, study length 104 weeks): 33.8 mg/kg/day | TD50 (rat, strain Fischer 344, males, in feed, site: preputial gland, lesion: carcinoma, NOS, dosed 103 weeks, study length 104 weeks): 65.5 mg/kg/day | TD50 (rat, strain Fischer 344, males, in feed, site: skin, lesion: sebaceous adenoma + trichoepithelioma, dosed 103 weeks, study length 104 weeks): 151 mg/kg/day | TD50 (rat, strain Fischer 344, males, in feed, site: skin, lesion: sebaceous adenoma, dosed 103 weeks, study length 104 weeks): 177 mg/kg/day | TD50 (rat, strain Fischer 344, males, in feed, site: tunica vaginalis, lesion: mesothelioma, NOS + mesothelioma, malignant, dosed 103 weeks, study length 104 weeks): 44 mg/kg/day | TD50 (rat, strain Holtzman albino (Sprague-Dawley derived), females, in feed, site: mammary gland, lesion: fibroadenoma, dosed 36 weeks, study length 54 weeks): 6.52 mg/kg/day | carcinogen call (rat, strain Holtzman albino (Sprague-Dawley derived), females, in feed, site: mammary tissue, wider than the gland, lesion: one or several types, types not named, dosed 44 weeks, study length 60 weeks): positive | TD50 (rat, strain Sprague-Dawley, females, in feed, site: mammary tissue, wider than the gland, lesion: one or several types, types not named, dosed 46 weeks, study length 66 weeks): 7.12 mg/kg/day

Source: PubChem BioAssay AID1745844 (Carcinogenic Potency Database (CPDB), 2022)
